Paper PMC8146980, “An Arrhythmic Mutation E7K Facilitates TRPM4 Channel Activation via Enhanced PIP2 Interaction” (Cells, 2021)

Assays:
[1] = target: T1, TRPM4 (TRPM4b) (Homo sapiens, UniProt Q8TD43, E7K); experiment: inside-out patch clamp, HEK293, reactivation after desensitization, Hill fit; type: cell-based; details: read-out: apparent EC50; Kd (abstract)
T1 construct: full-length human TRPM4b CDS subcloned into pcI-neo, expressed in HEK293 cells (original clone in pcDNA4TO-Flag); homotetramer (known biology)
T1 sequence (Q8TD43 whole entry E7K): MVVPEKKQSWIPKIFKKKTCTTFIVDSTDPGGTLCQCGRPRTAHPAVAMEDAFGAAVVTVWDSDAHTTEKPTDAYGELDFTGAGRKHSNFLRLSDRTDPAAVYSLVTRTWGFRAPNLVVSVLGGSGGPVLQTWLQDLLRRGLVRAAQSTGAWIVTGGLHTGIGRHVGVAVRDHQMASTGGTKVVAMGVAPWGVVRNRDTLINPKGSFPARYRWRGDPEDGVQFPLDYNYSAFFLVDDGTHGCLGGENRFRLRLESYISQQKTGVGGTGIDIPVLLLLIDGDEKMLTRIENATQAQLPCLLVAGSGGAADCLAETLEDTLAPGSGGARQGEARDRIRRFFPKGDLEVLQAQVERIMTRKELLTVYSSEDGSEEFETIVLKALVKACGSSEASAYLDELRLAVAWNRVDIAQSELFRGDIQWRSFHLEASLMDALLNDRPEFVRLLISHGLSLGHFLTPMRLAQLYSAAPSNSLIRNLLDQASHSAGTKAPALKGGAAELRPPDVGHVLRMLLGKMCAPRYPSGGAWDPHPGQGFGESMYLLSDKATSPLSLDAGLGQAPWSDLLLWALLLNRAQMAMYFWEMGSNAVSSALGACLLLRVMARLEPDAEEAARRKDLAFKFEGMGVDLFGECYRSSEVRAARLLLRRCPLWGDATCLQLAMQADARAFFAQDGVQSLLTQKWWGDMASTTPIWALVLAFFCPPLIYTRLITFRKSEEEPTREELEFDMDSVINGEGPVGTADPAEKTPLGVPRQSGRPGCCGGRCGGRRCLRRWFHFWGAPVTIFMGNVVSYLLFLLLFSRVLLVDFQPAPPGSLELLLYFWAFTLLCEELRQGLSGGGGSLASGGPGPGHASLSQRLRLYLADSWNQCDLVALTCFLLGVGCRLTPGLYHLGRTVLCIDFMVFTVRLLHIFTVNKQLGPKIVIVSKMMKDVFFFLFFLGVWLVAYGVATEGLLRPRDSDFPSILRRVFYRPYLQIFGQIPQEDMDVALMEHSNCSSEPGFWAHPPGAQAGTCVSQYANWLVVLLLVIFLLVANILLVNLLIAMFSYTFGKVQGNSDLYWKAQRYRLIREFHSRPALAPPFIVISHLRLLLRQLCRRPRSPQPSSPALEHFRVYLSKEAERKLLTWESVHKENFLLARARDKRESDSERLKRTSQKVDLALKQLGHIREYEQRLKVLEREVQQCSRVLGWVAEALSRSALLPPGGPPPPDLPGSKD

[2] = target: T2, TRPM4 (TRPM4b) (Homo sapiens, UniProt Q8TD43); experiment: as above; type: cell-based; details: read-out: apparent EC50; Kd (abstract)
T2 construct: full-length human TRPM4b CDS subcloned into pcI-neo, expressed in HEK293 cells (original clone in pcDNA4TO-Flag); homotetramer (known biology)
T2 sequence (Q8TD43 whole entry): as the sequence (Q8TD43 whole entry E7K) above, with K7E counted along it

For `CCCCCCCC(=O)OC[C@H](COP(=O)(O)O[C@@H]1[C@H](O)[C@H](O)[C@@H](OP(=O)(O)O)[C@H](OP(=O)(O)O)[C@H]1O)OC(=O)CCCCCCC` [diC8-PI(4,5)P2], the EC50 [1] was 1.44 ± 0.2 µM and the EC50 [2] was 2.4 ± 0.23 µM.
